In patent publication US20140171436A1, “TREATMENT OF ANTIFOLATE NEUROTOXICITY” (Syntrix Biosystems, Inc., priority 2003, published 2014):
Values joined by “and” are separate entries in the source; they are usually repeats but may differ in a detail not shown here. Equal values may be shown once.

How the values were obtained:
[1] = system: patients with AF-NT (MTX neurotoxicity); assay: Patients with AF-NT treated with oral dextromethorphan; format: in vivo, human
From the text: For example, the intensity, duration and frequency of neurological symptoms such as seizure, paralysis, nystagmus, ataxia, dysarthria, aphasia cranial nerve palsy, asthenia can be readily determined by clinical evaluation. A variety of validated grading methods are available to assess such symptoms. As used herein, useful strategies for grading such objective AF-NT symptoms include time to initial response, time to resolution of all symptoms, and a grade (1-3) of the rate of symptom resolution for the majority of all AF-NT symptoms. In this grading system, a grade 1 is where symptoms resolve gradually or linearly over an extended period exceeding 96 hours, a grade 2 is where the majority of symptoms resolve in 25 to 96 hours), and a grade 3 is where the majority of symptoms resolve in 24 hours or less: the greater the grade, the greater degree of symptom improvement. Physical deficits that can be objectively assessed generally appear in patients with moderate- to high-dose exposure to antifolate.
The mean grade of symptom resolution for untreated patients was 1.4±0.2 (mean±SEM), while the mean grade of symptom resolution for treated patients was 2.3±0.2 (mean±SEM).

[2] = target: sigma-1 receptor (Homo sapiens, UniProt Q99720); conditions: cited from earlier work; for Ki: read-out: sigma-1 affinity Ki
Sequence of sigma-1 receptor (Q99720 whole entry, species assumed): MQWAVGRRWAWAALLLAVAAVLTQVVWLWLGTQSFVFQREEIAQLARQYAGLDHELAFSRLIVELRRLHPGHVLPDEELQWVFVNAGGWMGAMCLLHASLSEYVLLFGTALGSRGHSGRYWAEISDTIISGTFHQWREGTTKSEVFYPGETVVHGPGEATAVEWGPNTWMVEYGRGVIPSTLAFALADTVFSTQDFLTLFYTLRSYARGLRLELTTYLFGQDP

[3] = target: sigma-2 (Homo sapiens, UniProt Q5BJF2); conditions: read-out: Ki sigma-2; cited from earlier work
Sequence of sigma-2 (Q5BJF2 whole entry): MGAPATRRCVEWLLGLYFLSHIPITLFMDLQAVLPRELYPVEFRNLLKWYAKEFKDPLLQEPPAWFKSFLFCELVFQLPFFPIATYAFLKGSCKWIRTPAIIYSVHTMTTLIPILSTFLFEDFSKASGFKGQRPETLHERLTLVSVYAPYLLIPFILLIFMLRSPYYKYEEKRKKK

[4] = frequent and massive doses as large as 3300 mg/day; cited from earlier work
[5] = target: NMDA receptor; conditions: read-out: Ki NMDAR; cited from earlier work
[6] = in vivo; cited from earlier work
[7] = Example 1: NHL, 32 M, MTX 12 mg IT, oral DM 1 mg/kg once
[8] = Example 2: ALL, 15 M, MTX 12 mg IT and 100 mg/m^2 IV, oral DM 2 mg/kg × 1
[9] = Example 3: ALL, 19 M, MTX 7.5 mg IO and 1 g/m^2 IV, oral DM 1 mg/kg TID
[10] = Example 4: OS, 13 M, MTX 12 g/m^2 IV, oral DM 1 mg/kg TID
[11] = Example 4, DM 1 mg/kg three times on a single day
[12] = Example 5: OS, 16 M, MTX 12 g/m^2 IV, oral DM 1 mg/kg × 1
[13] = Example 6: ALL, 18 F, MTX 12 mg IT, oral DM 1 mg/kg BID
[14] = Example 7: ALL, 6 F, MTX 12 mg IT, oral DM 1 mg/kg BID × 3
[15] = Example 8: ALL, 9 F, MTX 12 mg IT, oral DM 1 mg/kg BID
[16] = Example 9: ALL, 14 M, IV and IT MTX, oral DM 1 mg/kg TID
[17] = Example 10: ALL, 8 F, MTX 12 mg IT, oral DM 1 mg/kg BID
[18] = Example 11: ALL, 15 F, MTX 12 mg IT, oral DM 1 mg/kg BID
[19] = Example 12: ALL, 5 M, IV and IT MTX, oral DM 1 mg/kg TID
[20] = Example 13: ALL, 13 M, MTX 12 mg IT, oral DM 1 mg/kg BID
[21] = Example 14: ALL, 14 F, MTX 12 mg IT, oral DM 1 mg/kg BID
[22] = Example 15: ALL, 13 F, MTX 12 mg IT, oral DM 1.5 mg/kg BID × 6
[23] = Example 16: ALL, 6 M, MTX 12 mg IT, oral DM 1 mg/kg BID × 5

COc1ccc2c(c1)[C@@]13CCCC[C@H]1[C@@H](C2)N(C)CC3 [dextromethorphan, (+)-3-methoxy-N-methylmorphinan]
Grade (1-3) of symptom resolution [1, 7]: 3 (3 = rapid (majority of symptoms resolved in 24 hours or less))
Time to initial response [1, 7]: 3 h
Time to resolution of all symptoms [1, 7]: 24 h
Grade (1-3) of symptom resolution [1, 8]: 3 (3 = rapid (majority of symptoms resolved in 24 hours or less))
Time to initial response [1, 8]: 0.50 h
Time to resolution of all symptoms [1, 8]: 6 h
duration of symptoms ([1]; Example 3, text, DM 1 mg/kg three times on a single day): 10 days
Grade (1-3) of symptom resolution [1, 9]: 1 (1 = gradual (symptoms resolved gradually or linearly over an extended period exceeding 96 hours))
Time to initial response [1, 9]: 3 h
Time to resolution of all symptoms [1, 9]: 240 h
Grade (1-3) of symptom resolution [1, 10]: 2 (2 = moderate (majority of symptoms resolved in 25 to 96 hours))
Time to initial response [1, 10]: 0.75 h
Time to resolution of all symptoms [1, 10]: 72 h
duration of symptoms [1, 11]: 3 days
time until symptoms began to improve [1, 11]: 45 min
duration of symptoms ([1]; Example 5, text, DM 1 mg/kg once): 0.0208 days
Grade (1-3) of symptom resolution [1, 12]: 3 (3 = rapid (majority of symptoms resolved in 24 hours or less))
Time to initial response [1, 12]: 0.50 h
Time to resolution of all symptoms [1, 12]: 0.50 h
persistent confusion ([1]; Example 6, text, DM 1 mg/kg po BID): 8 days
Grade (1-3) of symptom resolution [1, 13]: 2 (2 = moderate (majority of symptoms resolved in 25 to 96 hours))
Time to initial response [1, 13]: 24 h
Time to resolution of all symptoms [1, 13]: 192 h
Grade (1-3) of symptom resolution [1, 14]: 3 (3 = rapid (majority of symptoms resolved in 24 hours or less))
Time to initial response [1, 14]: 4 h
Grade (1-3) of symptom resolution [1, 15]: 2 (2 = moderate (majority of symptoms resolved in 25 to 96 hours))
Time to initial response [1, 15]: 2 h
Grade (1-3) of symptom resolution [1, 16]: 3 (3 = rapid (majority of symptoms resolved in 24 hours or less))
Time to initial response [1, 16]: 2 h
Time to resolution of all symptoms [1, 16]: 3 h
time to complete resolution ([1]; Example 10, text, DM 1 mg/kg po BID for 24 hours): 5 days
Grade (1-3) of symptom resolution [1, 17]: 2 (2 = moderate (majority of symptoms resolved in 25 to 96 hours))
Time to resolution of all symptoms [1, 17]: 120 h
time until back to baseline ([1]; Example 11, text, DM 1 mg/kg po BID): 8 days
Grade (1-3) of symptom resolution [1, 18]: 3 (3 = rapid (majority of symptoms resolved in 24 hours or less))
Time to initial response [1, 18]: 24 h
Time to resolution of all symptoms [1, 18]: 192 h
Grade (1-3) of symptom resolution [1, 19]: 3 (3 = rapid (majority of symptoms resolved in 24 hours or less))
Time to initial response [1, 19]: 24 h
Time to resolution of all symptoms [1, 19]: 24 h
Grade (1-3) of symptom resolution [1, 20]: 3 (3 = rapid (majority of symptoms resolved in 24 hours or less))
Time to initial response [1, 20]: 24 h
Time to resolution of all symptoms [1, 20]: 24 h
time until able to speak ([1]; Example 14, text, DM 1 mg po BID by nasogastric tube): 9 days
Grade (1-3) of symptom resolution [1, 21]: 1 (1 = gradual (symptoms resolved gradually or linearly over an extended period exceeding 96 hours))
Time to initial response [1, 21]: 216 h
Time to resolution of all symptoms [1, 21]: >1000 h
Grade (1-3) of symptom resolution [1, 22]: 1 (1 = gradual (symptoms resolved gradually or linearly over an extended period exceeding 96 hours))
Time to resolution of all symptoms [1, 22]: >1000 h
time to complete resolution ([1]; Example 16, text, DM 1 mg/kg po BID for 5 days): about 5 days
Grade (1-3) of symptom resolution [1, 23]: 1 (1 = gradual (symptoms resolved gradually or linearly over an extended period exceeding 96 hours)) and 2 (2 = moderate (majority of symptoms resolved in 25 to 96 hours))
Time to initial response [1, 23]: 24 to 48 h and 24 h
Time to resolution of all symptoms [1, 23]: 120 h
mean grade of symptom resolution (mean±SEM) ([1]; treated patients, Examples 1-16, P 0.0042 vs untreated, unpaired t test): 2.3±0.2
Kd ([2]; read-out: sigma-1 affinity Kd): 20 nM
Ki [2]: 205 nM and 210 nM
Ki [3]: 4000 to 11000 nM
side-effects [4]: unacceptable PCP-like side-effects

CC12CC3CC(C)(C1)CC(N)(C3)C2 [memantine]
Ki [5]: 500 nM
Ki [2]: 2600 nM
mean CSF/serum ratio [6]: 0.52
